Laboratory results as given in PubChem BioAssay (NCI).
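Five concentrations, 48 hours, 96-well plates. GI50 marks 50% less growth. TGI: total growth inhibition.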

Key:
Assay in all cases: NCI-60 cell line screen, 48 h
NCI-H226 lung = test system: NCI-H226 lung
OVCAR-4 ovarian = test system: OVCAR-4 ovarian
HCC-2998 colon = test system: HCC-2998 colon
EKVX NSCLC = test system: EKVX NSCLC
SK-MEL-5 melanoma = test system: SK-MEL-5 melanoma
MALME-3M melanoma = test system: MALME-3M melanoma
HT29 colon = test system: HT29 colon
UACC-257 melanoma = test system: UACC-257 melanoma
SN12C renal = test system: SN12C renal
CAKI-1 renal = test system: CAKI-1 renal

Structure (SMILES) | TGI (NCI-H226 lung) | TGI (OVCAR-4 ovarian) | TGI (HCC-2998 colon) | TGI (EKVX NSCLC) | TGI (SK-MEL-5 melanoma) | TGI (MALME-3M melanoma) | TGI (HT29 colon) | TGI (UACC-257 melanoma) | TGI (SN12C renal) | TGI (CAKI-1 renal) | GI50 (NCI-H226 lung) | GI50 (OVCAR-4 ovarian) | GI50 (HCC-2998 colon) | GI50 (EKVX NSCLC) | GI50 (SK-MEL-5 melanoma) | GI50 (MALME-3M melanoma) | GI50 (HT29 colon) | GI50 (UACC-257 melanoma) | GI50 (SN12C renal) | GI50 (CAKI-1 renal)
CC(CO)(CO)Nc1ncnc2ccccc12 | > 100 µM | > 100 µM | > 100 µM | > 100 µM | > 100 µM | > 100 µM | > 100 µM | > 100 µM | > 100 µM | > 100 µM | – | – | – | – | – | – | – | – | – | –
Fc1ccc(-c2nnc3sc(COc4ccccc4Cl)nn23)cc1Cl | 57.1 µM | 78.4 µM | > 100 µM | > 100 µM | 69.1 µM | > 100 µM | > 100 µM | > 100 µM | > 100 µM | > 100 µM | 22.8 µM | 28.2 µM | > 100 µM | 39.2 µM | 23.4 µM | 70.9 µM | 48.1 µM | 46.2 µM | 31.9 µM | 76.6 µM
Nc1nnc(N)n1NC(=O)C(=O)Nc1ccc([N+](=O)[O-])cc1 | > 100 µM | > 100 µM | > 100 µM | > 100 µM | > 100 µM | > 100 µM | > 100 µM | > 100 µM | > 100 µM | > 100 µM | – | – | – | – | – | – | – | – | – | –
Cn1c(Sc2ccc(-c3cccnc3)n2C)ccc1-c1cccnc1 | 51.1 µM | 36.6 µM | 34.7 µM | > 56.8 µM | 30.4 µM | 23.3 µM | 55.1 µM | 29.1 µM | 39.6 µM | 36.5 µM | – | – | – | – | – | – | – | – | – | –
COc1cc2c(cc1Oc1ccc(OC)c3c1CC1c4c(cc(OC)c(OC)c4-3)CCN1C)CC1c3c(cc(OC)c(OC)c3-2)CCN1C (stereo not given) | 5.01 µM | 10.4 µM | 5.89 µM | 10.8 µM | 2.92 µM | 3.38 µM | 2.94 µM | 3.21 µM | 19.3 µM | 8.06 µM | – | – | – | – | – | – | – | – | – | –
COc1ccc(CC2c3cc(OC)c(OC)c(OC)c3CC[N+]2(C)C)cc1Oc1ccc(CC2c3cc4c(c(OC)c3CCN2C)OCO4)cc1 (stereo not given) | > 100 µM | > 100 µM | > 100 µM | > 100 µM | > 100 µM | > 100 µM | > 100 µM | > 100 µM | > 100 µM | > 100 µM | – | – | – | – | – | – | – | – | – | –
C[n+]1ccc(-c2cc[n+](C)cc2)cc1 | 43.1 µM | 3.21 µM | 97.8 µM | > 60.2 µM | > 35.6 µM | 0.981 µM | > 81.9 µM | 3.09 µM | 30.3 µM | > 100 µM | – | – | – | – | – | – | – | – | – | –
COc1cc(C)c2c(=O)c3c(oc2c1)C(=O)c1c(O)c(OC)cc(O)c1C3=O | 0.524 µM | 4.28 µM | 25 µM | 3.25 µM | 2.33 µM | 3.83 µM | > 50 µM | 3.1 µM | 5.3 µM | 1.85 µM | – | – | – | – | – | – | – | – | – | –
O=C(O)C1=NNC(C(=O)O)=NN1 | > 100 µM | > 100 µM | – | > 100 µM | > 100 µM | > 100 µM | > 100 µM | > 100 µM | > 100 µM | > 100 µM | – | – | – | – | – | – | – | – | – | –
COc1cc(O)c2c(c1)C(=O)c1cc(C)cc(O)c1C2=O | > 100 µM | > 100 µM | > 100 µM | > 100 µM | > 100 µM | > 100 µM | > 100 µM | > 100 µM | > 100 µM | > 100 µM | – | – | – | – | – | – | – | – | – | –
CC(C)=CCC[C@](C)(O[C@@H]1O[C@H](CO)[C@@H](O)[C@H](O)[C@H]1O)[C@H]1CC[C@]2(C)[C@@H]1[C@H](O)C[C@@H]1[C@@]3(C)CC[C@H](O)C(C)(C)[C@@H]3[C@@H](O[C@@H]3O[C@H](CO)[C@@H](O)[C@H](O)[C@H]3O)C[C@]12C | > 100 µM | > 100 µM | > 100 µM | > 100 µM | > 100 µM | > 100 µM | > 100 µM | > 100 µM | > 100 µM | > 100 µM | – | – | – | – | – | – | – | – | – | –
NC(=O)Nc1cc(O)ccc1N=Nc1ccc(S(=O)(=O)Nc2ccccn2)cc1 | – | > 100 µM | > 100 µM | > 100 µM | > 100 µM | > 100 µM | > 100 µM | > 100 µM | > 100 µM | > 100 µM | – | – | – | – | – | – | – | – | – | –
CCCCCCCCCCCCCCCCOCC(COP(=O)([O-])OCC[n+]1ccc(N(C)C)cc1)OCC (stereo not given) | 33.7 µM | 29.3 µM | 27.6 µM | – | 31.6 µM | 33 µM | 28 µM | – | 34.6 µM | – | – | – | – | – | – | – | – | – | – | –
